“And” between values parts separate entries of the source, which are not always exact repeats. Identical values can stand only once. Toxic doses and inconclusive results are not listed.

The test system of the experiment is L1210 leukemia ip in BDF1 mice, survival T/C. The experiment is described as follows: NCI In Vivo Anticancer Drug Screen. Data for tumor model L1210 Leukemia (intraperitoneal) in B6D2F1 (BDF1) mice. The following applies: endpoint: mean survival time, higher = longer survival. In a few lines: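 Value reflects the ratio of survival in compound-treated mice to survival in vehicle-treated controls, with both groups carrying the same transplanted tumor.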

Where [1] appears, read: dose: 100.0 mg/kg/injection, schedule: Q01DX009 (ip), vehicle: Klucel (hydroxypropylcellulose) (HPC).
Setting [2] is: dose: 100.0 mg/kg/injection, schedule: Q04DX003 (ip), vehicle: Klucel (hydroxypropylcellulose) (HPC).
[3] abbreviates: dose: 200.0 mg/kg/injection, schedule: Q01DX009 (ip), vehicle: Klucel (hydroxypropylcellulose) (HPC).
Setting [4] is: dose: 200.0 mg/kg/injection, schedule: Q04DX003 (ip), vehicle: Klucel (hydroxypropylcellulose) (HPC).
[5] abbreviates: dose: 100.0 mg/kg/injection, schedule: Q04DX003 (ip), vehicle: saline with Tween-80.
The mark [6] stands for this setting: dose: 200.0 mg/kg/injection, schedule: Q04DX003 (ip), vehicle: saline with Tween-80.
Where [7] appears, read: dose: 400.0 mg/kg/injection, schedule: Q04DX003 (ip), vehicle: saline with Tween-80.

As for `Oc1ccc(C2CCCCC2)c(O)c1`, the T/C was 96 % of control (dose: 50.0 mg/kg/injection, schedule: Q01DX009 (ip), vehicle: Klucel (hydroxypropylcellulose) (HPC)); 101 % of control (dose: 50.0 mg/kg/injection, schedule: Q04DX003 (ip), vehicle: Klucel (hydroxypropylcellulose) (HPC)); 96 % of control under setting [1]; 98 % of control under setting [2]; 100 % of control under setting [3]; 103 % of control under setting [4].
With `c1ccc(Sc2ccc3ccccc3c2)cc1`, the T/C runs as follows: (dose: 100.0 mg/kg/injection, schedule: Q01DX009 (ip), vehicle: saline with Tween-80) 103 % of control; (dose: 200.0 mg/kg/injection, schedule: Q01DX009 (ip), vehicle: saline with Tween-80) 97 % of control; (dose: 400.0 mg/kg/injection, schedule: Q01DX009 (ip), vehicle: saline with Tween-80) 93 % of control.
As to `C=CCNC(=S)NCc1ccc(C)cc1`, the T/C under setting [1] was 96 % of control and the T/C under setting [3] is 93 % of control.
For the compound `c1cc[c]([Sn]([CH2]Cc2ccncc2)([c]2ccccc2)[c]2ccccc2)cc1`, the T/C (dose: 100.0 mg/kg/injection, schedule: Q04DX002 (sc), vehicle: olive oil, sesame oil, peanut oil) was 110 % of control; the T/C (dose: 200.0 mg/kg/injection, schedule: Q04DX002 (sc), vehicle: olive oil, sesame oil, peanut oil) was 100 % of control; the T/C (dose: 400.0 mg/kg/injection, schedule: Q04DX002 (sc), vehicle: olive oil, sesame oil, peanut oil) is 103 % of control.
As to `COc1nc(=O)n(C2CCCO2)cc1Br` (centres undefined), the T/C was 107 % of control (dose: 100.0 mg/kg/injection, schedule: Q01DX001 (ip), vehicle: other); 96 % of control (dose: 200.0 mg/kg/injection, schedule: Q01DX001 (ip), vehicle: other); 98 % of control (dose: 400.0 mg/kg/injection, schedule: Q01DX001 (ip), vehicle: other).
For the compound `O=C(O)CC(c1ccccc1)C(CC(=O)O)c1ccccc1` (centres undefined), the T/C was 91 % of control under setting [2]; 95 % of control under setting [4]; 96 % of control (dose: 400.0 mg/kg/injection, schedule: Q04DX003 (ip), vehicle: Klucel (hydroxypropylcellulose) (HPC)).
As to `c1ccc2c(c1)cc1ccc3cccc4ncc2c1c34`, the T/C under setting [5] was 86 % of control, the T/C under setting [6] was 96 % of control and the T/C under setting [7] is 88 % of control.
In the same order, the values of `COP(=O)(OC)C(OC(=O)C(C)C)=C(C)C` are 112 % of control, 110 % of control and 102 % of control.
As to `CN(C)C=NC1(c2ccccc2)CCCCC1`, the T/C by setting is: (dose: 25.0 mg/kg/injection, schedule: Q01DX009 (ip), vehicle: saline with Tween-80) 96 % of control; (dose: 50.0 mg/kg/injection, schedule: Q01DX009 (ip), vehicle: saline with Tween-80) 96 % of control.
Take `O=C1c2ccccc2C(=O)c2[nH]c(-c3ccccc3)cc21`: the T/C was 94 % of control (dose: 100.0 mg/kg/injection, schedule: Q01DX001 (ip), vehicle: saline with Tween-80); 94 % of control (dose: 200.0 mg/kg/injection, schedule: Q01DX001 (ip), vehicle: saline with Tween-80); 94 % of control (dose: 400.0 mg/kg/injection, schedule: Q01DX001 (ip), vehicle: saline with Tween-80).
In the case of `CCCCCCCCCCCC(=O)NC(=S)Nc1ccc(C(=O)OCC)cc1`, the T/C is 93 % of control (dose: 100.0 mg/kg/injection, schedule: Q04DX002 (ip), vehicle: saline); 108 % of control (dose: 200.0 mg/kg/injection, schedule: Q04DX002 (ip), vehicle: saline); 108 % of control (dose: 400.0 mg/kg/injection, schedule: Q04DX002 (ip), vehicle: saline).
Regarding `CCOC(=O)c1ccc(NC(=O)Oc2ccc(Cl)cc2C)cc1`, the T/C under setting [1] was 101 % of control; the T/C under setting [3] is 92 % of control; the T/C (dose: 400.0 mg/kg/injection, schedule: Q01DX009 (ip), vehicle: Klucel (hydroxypropylcellulose) (HPC)) is 95 % of control.
On to `CCCCCCCCCCCCOC(C(=O)O)(c1ccccc1)c1ccccc1`, for which the T/C was 100 % of control (dose: 25.0 mg/kg/injection, schedule: Q04DX003 (ip), vehicle: saline with Tween-80); 91 % of control (dose: 50.0 mg/kg/injection, schedule: Q04DX003 (ip), vehicle: saline with Tween-80); 98 % of control and 89 % of control under setting [5].
On to `CC(=O)OCCOC(=O)Nc1cccc2ccccc12`, for which the T/C is 100 % of control (dose: 100.0 mg/kg/injection, schedule: Q04DX002 (ip), vehicle: Klucel (hydroxypropylcellulose) (HPC)); 100 % of control (dose: 200.0 mg/kg/injection, schedule: Q04DX002 (ip), vehicle: Klucel (hydroxypropylcellulose) (HPC)); 97 % of control (dose: 400.0 mg/kg/injection, schedule: Q04DX002 (ip), vehicle: Klucel (hydroxypropylcellulose) (HPC)).
With `COc1ccc(OC)c2c(C(O)CNC34CC5CC(CC(C5)C3)C4)cc(-c3ccc(Cl)cc3)nc12` (centres undefined), the T/C reads like this: (dose: 100.0 mg/kg/injection, schedule: Q04DX003 (ip), vehicle: saline) 97 % of control; (dose: 200.0 mg/kg/injection, schedule: Q04DX003 (ip), vehicle: saline) 92 % of control; (dose: 400.0 mg/kg/injection, schedule: Q04DX003 (ip), vehicle: saline) 92 % of control.
For `O=C(CCN1CC1)NCCCCCCCCNC(=O)CCN1CC1`, the T/C was 91 % of control (dose: 1.0 mg/kg/injection, schedule: Q01DX009 (ip), vehicle: saline); 105 % of control (dose: 2.0 mg/kg/injection, schedule: Q01DX009 (ip), vehicle: saline); 111 % of control (dose: 4.0 mg/kg/injection, schedule: Q01DX009 (ip), vehicle: carboxymethylcellulose (CMC)); 96 % of control (dose: 8.0 mg/kg/injection, schedule: Q01DX009 (ip), vehicle: carboxymethylcellulose (CMC)); 111 % of control (dose: 22.0 mg/kg/injection, schedule: Q01DX001 (ip), vehicle: carboxymethylcellulose (CMC)); 151 % of control (dose: 26.0 mg/kg/injection, schedule: Q01DX009 (ip), vehicle: carboxymethylcellulose (CMC)). The T/C by setting is: (dose: 33.0 mg/kg/injection, schedule: Q01DX001 (ip), vehicle: carboxymethylcellulose (CMC)) 122 % of control; (dose: 33.0 mg/kg/injection, schedule: Q01DX009 (ip), vehicle: carboxymethylcellulose (CMC)) 151 % of control; (dose: 50.0 mg/kg/injection, schedule: Q01DX009 (ip), vehicle: carboxymethylcellulose (CMC)) 160 % of control; (dose: 75.0 mg/kg/injection, schedule: Q01DX001 (ip), vehicle: carboxymethylcellulose (CMC)) 150 % of control.
With `COC(=O)CCCCCCCCCCS.[Pb]`, the T/C (dose: 50.0 mg/kg/injection, schedule: Q01DX001 (ip), vehicle: carboxymethylcellulose (CMC)) was 92 % of control; the T/C (dose: 100.0 mg/kg/injection, schedule: Q01DX001 (ip), vehicle: carboxymethylcellulose (CMC)) is 94 % of control; the T/C (dose: 200.0 mg/kg/injection, schedule: Q01DX001 (ip), vehicle: carboxymethylcellulose (CMC)) was 94 % of control; the T/C (dose: 400.0 mg/kg/injection, schedule: Q01DX001 (ip), vehicle: carboxymethylcellulose (CMC)) is 97 % of control.
In the case of `O=C1CC2(C(=O)O)CC3CC2C(O1)C3I` (centres undefined), the T/C is 86 % of control (dose: 100.0 mg/kg/injection, schedule: Q01DX009 (ip), vehicle: carboxymethylcellulose (CMC)); 105 % of control (dose: 100.0 mg/kg/injection, schedule: Q04DX003 (ip), vehicle: carboxymethylcellulose (CMC)); 96 % of control (dose: 200.0 mg/kg/injection, schedule: Q01DX009 (ip), vehicle: carboxymethylcellulose (CMC)); 97 % of control (dose: 200.0 mg/kg/injection, schedule: Q04DX003 (ip), vehicle: carboxymethylcellulose (CMC)); 94 % of control (dose: 400.0 mg/kg/injection, schedule: Q01DX009 (ip), vehicle: carboxymethylcellulose (CMC)); 103 % of control (dose: 400.0 mg/kg/injection, schedule: Q04DX003 (ip), vehicle: carboxymethylcellulose (CMC)).
With `O=C(c1ccc(O)cc1O)c1ccc(O)cc1O`, the T/C by setting is: (dose: 50.0 mg/kg/injection, schedule: Q04DX002 (ip), vehicle: gum acacia) 114 % of control; (dose: 100.0 mg/kg/injection, schedule: Q04DX002 (ip), vehicle: gum acacia) 104 % of control; (dose: 200.0 mg/kg/injection, schedule: Q04DX002 (ip), vehicle: gum acacia) 86 % of control.

The values above are taken from PubChem BioAssay AID248 (DTP/NCI, 2004).
